Data on five molecules can be found in publication PMC8512631, “Structural Basis for PPARs Activation by The Dual PPARα/γ Agonist Sanguinarine: A Unique Mode of Ligand Recognition” (Molecules, 2021).

Substitutions are numbered along the chain they refer to. No end group written: not given here. *: point of attachment. Biotin = O=C1N[C@H]2[C@H](CS[C@H]2CCCCC(=O)*)N1

The target in one test is T1, PPARα (Homo sapiens, UniProt Q07869).
T1 construct: gene PPARA; LBD
Description: thermal shift assay of LBD with SRC1 peptide; GAL4 reporter at […]. In kind it is binding.

The target in test [1] is T2, PPARδ (Homo sapiens, UniProt Q03181, R248A).
T2 construct: gene PPARD; full-length
T2 sequence (Q03181 1-441 R248A): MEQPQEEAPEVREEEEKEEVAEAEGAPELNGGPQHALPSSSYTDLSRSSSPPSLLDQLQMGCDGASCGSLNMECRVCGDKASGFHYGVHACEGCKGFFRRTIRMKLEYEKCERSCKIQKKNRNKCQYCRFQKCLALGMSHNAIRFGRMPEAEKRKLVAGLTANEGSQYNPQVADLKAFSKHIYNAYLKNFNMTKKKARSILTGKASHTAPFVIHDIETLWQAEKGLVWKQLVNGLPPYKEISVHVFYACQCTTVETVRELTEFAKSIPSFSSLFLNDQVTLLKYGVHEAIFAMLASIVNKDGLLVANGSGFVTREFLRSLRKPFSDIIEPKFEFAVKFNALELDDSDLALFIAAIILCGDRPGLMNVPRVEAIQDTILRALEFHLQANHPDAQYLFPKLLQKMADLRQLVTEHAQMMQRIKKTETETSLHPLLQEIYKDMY
Description: PPRE luciferase reporter in […] cells, […]. Format: cell-based.

Test [2] addresses T3, PPARδ (Homo sapiens, UniProt Q03181, H244A).
T3 construct: gene PPARD; full-length
T3 sequence (Q03181 1-441 H244A): T2 sequence (Q03181 1-441 R248A) with H244A, A248R
Description: PPRE luciferase reporter in […] cells, […]. Format: cell-based.

Test [3] addresses T4, human PPARα ligand-binding domain (residues 196-468) (human, UniProt Q07869-1 196-468).
T4 construct: Expressed from pET24a; The methods describe only this PPARα-LBD construct; also called PPARα–LBD; source: E. coli BL21 (DE3), purified (Ni HiTrap, gel filtration Superdex 200); not shown: His6, N-terminal, kept
T4 sequence (looked up): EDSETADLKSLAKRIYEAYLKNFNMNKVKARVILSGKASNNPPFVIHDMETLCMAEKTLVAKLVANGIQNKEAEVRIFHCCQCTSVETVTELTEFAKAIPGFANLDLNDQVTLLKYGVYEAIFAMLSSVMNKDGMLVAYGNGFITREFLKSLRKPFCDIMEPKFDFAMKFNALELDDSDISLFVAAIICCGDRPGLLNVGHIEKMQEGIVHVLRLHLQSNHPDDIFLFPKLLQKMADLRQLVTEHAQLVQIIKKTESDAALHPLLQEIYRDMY
Description: AlphaScreen or HTRF; approximately 20–40 nM PPAR LBDs on nickel chelate acceptor beads, 20 nM biotinylated co-factor peptides on streptavidin donor beads; 50 mM MOPS, 50 mM NaF, 0.05 mM CHAPS, 0.1 mg/mL BSA, pH 7.4; in response to 1 μM sanguinarine. Conditions: both partners purified. (Alpha assays give light when donor and acceptor beads are brought close together.)

T1 sequence (Q15788 2-1441 partner, one chain of several): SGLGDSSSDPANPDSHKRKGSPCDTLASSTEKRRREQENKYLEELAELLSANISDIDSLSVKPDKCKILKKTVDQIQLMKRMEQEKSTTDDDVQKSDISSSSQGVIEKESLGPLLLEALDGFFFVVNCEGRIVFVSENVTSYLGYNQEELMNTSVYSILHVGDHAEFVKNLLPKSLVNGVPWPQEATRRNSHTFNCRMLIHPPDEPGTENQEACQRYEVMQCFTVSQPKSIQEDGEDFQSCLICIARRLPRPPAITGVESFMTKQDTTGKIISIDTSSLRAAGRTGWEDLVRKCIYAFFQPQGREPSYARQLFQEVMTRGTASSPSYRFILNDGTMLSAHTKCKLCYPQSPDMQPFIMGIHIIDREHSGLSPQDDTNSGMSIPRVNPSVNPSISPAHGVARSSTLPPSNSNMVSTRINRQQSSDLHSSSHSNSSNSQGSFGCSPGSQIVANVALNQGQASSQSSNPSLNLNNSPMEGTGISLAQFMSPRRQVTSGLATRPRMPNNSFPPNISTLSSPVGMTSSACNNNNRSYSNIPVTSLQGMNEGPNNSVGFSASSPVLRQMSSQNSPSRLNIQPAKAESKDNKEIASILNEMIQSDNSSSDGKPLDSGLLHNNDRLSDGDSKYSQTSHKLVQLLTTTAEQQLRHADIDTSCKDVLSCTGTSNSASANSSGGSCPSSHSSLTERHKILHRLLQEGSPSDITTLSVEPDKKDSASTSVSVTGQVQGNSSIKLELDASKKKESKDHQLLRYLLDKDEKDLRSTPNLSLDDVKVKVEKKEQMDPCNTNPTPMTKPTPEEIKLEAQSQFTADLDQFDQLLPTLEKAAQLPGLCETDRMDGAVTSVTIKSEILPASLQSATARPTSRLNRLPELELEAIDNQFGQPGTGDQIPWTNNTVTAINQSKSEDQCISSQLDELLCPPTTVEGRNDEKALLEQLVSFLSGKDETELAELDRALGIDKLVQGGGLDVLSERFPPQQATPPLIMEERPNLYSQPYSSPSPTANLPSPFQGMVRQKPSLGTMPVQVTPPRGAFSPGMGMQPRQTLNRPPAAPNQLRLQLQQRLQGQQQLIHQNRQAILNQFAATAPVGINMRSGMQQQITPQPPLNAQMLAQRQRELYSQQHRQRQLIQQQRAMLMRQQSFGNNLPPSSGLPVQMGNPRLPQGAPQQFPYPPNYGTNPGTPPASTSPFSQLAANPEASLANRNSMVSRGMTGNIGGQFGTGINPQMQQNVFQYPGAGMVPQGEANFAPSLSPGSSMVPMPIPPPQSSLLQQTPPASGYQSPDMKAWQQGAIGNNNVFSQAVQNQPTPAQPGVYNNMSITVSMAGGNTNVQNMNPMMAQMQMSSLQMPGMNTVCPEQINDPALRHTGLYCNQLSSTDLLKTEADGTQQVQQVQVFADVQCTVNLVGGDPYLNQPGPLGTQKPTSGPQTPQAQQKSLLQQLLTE

With `Cc1nc(-c2ccc(C(F)(F)F)cc2)sc1C(=O)NCc1ccc(OC(C)(C)C(=O)O)cc1` [GW590735], the “thermal shift assay of LBD with SRC1 peptide; GAL4 reporter at 1 μM” value at PPARα is reported as “thermal shift assay showed that SRC1 increased the thermal stability of sanguinarine–PPARα, compared with GW735–PPARα”.

For the molecule `C[n+]1cc2c3c(ccc2c2ccc4cc5c(cc4c21)OCO5)OCO3` [sanguinarine], the “PPRE luciferase reporter in 293T cells, 1 μM” value at PPARδ [1] is listed as “sanguinarine activated the transcriptional activity of PPARδ–R248A mutation, in contrast to wild-type PPARδ”; on PPARδ [2], “the H244A mutation enables PPARδ to respond to sanguinarine treatment”.

Consider Biotin-PDAASKHKQLSELLRGGSG (the parent protein is in doubt) [biotinylated SRC3-3 co-activator LXXLL motif peptide], for which the binding result in test [3] is “binds”.

Turning to Biotin-QEPVSPKKKENALLRYLLDKDDTKD [biotinylated SRC2-3 co-activator LXXLL motif peptide], the binding result in test [3] is reported as “binds”.

With Biotin-SPSSHSSLTERHKILHRLLQEGSP [biotinylated SRC1-2 co-activator LXXLL motif peptide], in test [3], the binding result was “binds”.
